Publication PMC11393453, “Phosphorylation of tau at a single residue inhibits binding to the E3 ubiquitin ligase, CHIP” (Nature Communications, 2024)
Like-named read-outs stand apart in the source and are kept apart here.

Key:
CHIP [1] = experiment: CHIP-tau binding ELISA (tau proteoforms on immobilized CHIP); details: Fig 1D
CHIP [2] = experiment: NanoBiT live cell PPI assay (CHIP-tau split luciferase); format: cell-based; details: Fig 1B, normalized to FL tau with vehicle, 30nM OA
Experimental: Fig. 1 Phosphorylation of tauC3 inhibits interaction with CHIP. A Cartoon schematic of the live-cell NanoBiT assay for measuring CHIP-tau PPIs (NanoBiT PDB = 7SNX; CHIP PDB = 2C2L). B Results of NanoBiT assays for CHIP interactions with tau proteoforms following treatment with okadaic acid (30 nM, 18 h) or DMSO control. Luminescence normalized to CHIP binding to FL 0N4R tau treated with vehicle (dashed line). Error bars represent standard deviation (SD). Statistical significance was determined by two-way ANOVA with Bonferroni’s post hoc analysis (n = 3 biological replicates). CTRL = mock transfected control. C Tau proteoforms binding to immobilized CHIP measured by ELISA. Assay was performed in technical triplicate and normalized to maximum absorbance at 450 nm. D Dissociation constants derived from (C). Error bars represent SD. E In vitro ubiquitination of tau proteoforms by CHIP. Samples were collected at the denoted timepoints, quenched in SDS-PAGE loading buffer, and analyzed by western blot. Assay was performed once.
Fig. 2 Phosphorylation of tauC3 Ser416 is sufficient to inhibit interaction with CHIP. A Cartoon depicting constructs used for mapping of inhibitory phosphorylation sites by NanoBiT live cell assays. B NanoBiT live cell assay for CHIP interactions with truncated tau constructs following treatment with okadaic acid (30 nM, 18 h) or DMSO control. Data are shown as the difference between okadaic acid treated samples and vehicle control. Error bars represent SD. Statistical significance was determined by two-sided, one-way ANOVA with Tukey’s post hoc analysis (n = 3 biological replicates). C Apparent change in melting temperatures (Tmapp) for CHIP incubated with DMSO control or Hsp70 C-terminal peptides, as determined by DSF. Error bars represent SD. (n = 4 technical replicates). D DSF experiments performed and analyzed as in the previous panel, but with tauC3-derived peptides. (n = 4 technical replicates). E Competition FP experiment showing displacement of fluorescent tracer from the CHIP TPR domain by various 10-mer Hsp70 or tauC3-derived peptides. Experiments were performed in technical quadruplicate. F Inhibition constants derived from (E). Error bars represent SD. G Tau proteoforms binding to immobilized CHIP, as measured by ELISA. Assay was performed in technical triplicate and normalized to maximum absorbance at 450 nm. H Dissociation constants derived from (G). Error bars represent SD.
CHIP-substrate NanoBiT PPI assay was performed as previously described. Briefly, HEK293T cells were seeded in poly-D-lysine coated 96-well plates (Corning, flat bottom, white opaque) in Opti-MEM. Cells were transfected with 50 ng each SmBiT/LgBiT DNA using Lipofectamine 3000 (Thermo Fisher) in Opti-MEM according to the manufacturer’s instructions. Transfections were performed for 24 h, after which the media was replaced with fresh Opti-MEM containing DMSO or 30 nM okadaic acid. Cells were incubated for an additional […] at 37 °C/5% CO2 in a humidified incubator. Following this incubation, 12.5 uL 1X Nano-Glo live cell luciferase reagent (Promega) diluted in LCS buffer (Promega) was added to each well, and samples were incubated for 10 min at room temperature in the dark to allow luminescence levels to stabilize. […] Un-transfected cells were used to obtain background measurements which were subtracted from observed luminescence values.

tau: full length (FL) 0N4R splice isoform of tau, unmodified; recombinant or expressed in cells
Kd (CHIP [1]; replicate 1): 5.98 µM | Kd (CHIP [1]; replicate 2): 6.43 µM | Kd (CHIP [1]; replicate 3): 6.35 µM | Kd (CHIP [1]; read-out: transformed Kd, replicate 1): 5.98 µM | Kd (CHIP [1]; read-out: transformed Kd, replicate 2): 6.43 µM | Kd (CHIP [1]; read-out: transformed Kd, replicate 3): 6.35 µM | fold change of luminescence (CHIP [2]; replicate 1): 1.804 | fold change of luminescence (CHIP [2]; replicate 2): 1.978 | fold change of luminescence (CHIP [2]; replicate 3): 1.758
